Reference: patent publication US9121859B2, “Compounds and methods for determination of FKBP-binding immunosuppressant drugs” (Siemens Healthcare Diagnostics Inc., priority 2012, dated 2015)

Assays:
[1] = test system: monoclonal anti-sirolimus antibody (clone 155-M1); assay: Calculated cross-reactivity of releasing agent with antibody of the sirolimus ACMIA assay; format: binding; details: for Calculated antibody cross-reactivity (percent (%) times 100): sirolimus assay, measured at calibrator of 0 ng/mL, measured value/46.7 μg/mL analog; for Cross-reactivity with the sirolimus assay antibody: result in words
Experimental: (§1) Preparation of anti-sirolimus antibody-β-galactosidase conjugate. Monoclonal anti-sirolimus antibody (clone 155-M1 from Wyeth Pharmaceutical) was conjugated to β-galactosidase using a standard heterobifunctional SMCC (succinimidyl trans-4-(N-maleimidylmethyl)cyclohexane-1-carboxylate) linker according to known techniques. The antibody conjugate solution contained approximately 7.5 μg/mL anti-sirolimus antibody-β-galactosidase conjugate, 30 mg/mL protease free bovine serum albumin, 0.126 mg/mL MgCl2, 0.03 mL/mL of ethylene glycol, 35.14 mg/mL PIPES 1.5 sodium salt, 50 mg/mL NaCl and beta-gal mutein (inactivated β-galactosidase), pH 6.5.
(§2) Anti-sirolimus antibody-β-galactosidase conjugate (50 μL) was added next to each of the reaction vessels and the mixture was held for a period of time (10 to 15 minutes) and at a temperature of 43° C. to allow sirolimus, if present, to react with the antibody reagent. Chrome particles with immobilized sirolimus-biotin conjugate to streptavidin-coated chrome particle were added (50 μL) to each of the reaction vessels and were allowed to bind un-bound conjugate. […] The sirolimus-bound conjugate was detected by transferring the supernatant from each of the reaction vessels to a photometric cuvette and measuring the enzymatic rate of the conjugate in the presence of chlorophenol red-β-D-galactopyranoside (CPRG). The rate for each reaction vessel was measured bichromatically at 577 and 700 nm. The results are summarized in Table 1 under the categories: instrument signal observed for calibrators, drug concentration measured in ng/mL, percent (%) displaced vs. SIRO and calculated antibody cross-reactivity (percent (%) times 100). Cross-reactivity was based on the following: • 1) 70 μL of pretreatment reagent solution was added to the reaction medium versus 15 μL of sample, total reaction mixture volume=305 μL. • 2) 10 μg/mL of SIRO analog was in the pretreatment reagent solution. • 3) 10 μg/mL of SIRO analog from pretreatment reagent is equivalent to 46.7 μg/mL of SIRO analog added from sample (Calculation: 70 μL×10 μg/mL/15 μL=46.7 μg/mL) • 4) Measured sirolimus value at 0 ng/mL calibrator. • 5) Measure value/46.7 is % cross-reactivity.

[2] = test system: endogenous specific binding proteins (FKBP) in whole blood; assay: ACMIA assay for sirolimus: release of sirolimus from endogenous binding substances in spiked whole blood by releasing agent; details: for Drug concentration measured / Percent (%) displaced vs. SIRO: releasing agent 10 μg/mL
Experimental: (§3) Testing was carried out using the DIMENSION® RxL analyzer, available from Siemens Healthcare Diagnostics Inc., Newark Del. The instrument was employed using ACMIA immunoassay technology. The ACMIA assay method is described in U.S. Pat. Nos. 7,842,475, 7,186,518, 5,147,529, 5,128,103, 5,158,871, 4,661,408, 5,151,348, 5,302,532, 5,422,284, 5,447,870, and 5,434,051, the disclosures of which are incorporated herein in their entirety. In the embodiment of the ACMIA method used herein and discussed in more detail below, competition between tacrolimus analog on chrome particles and tacrolimus in patient samples for antibody for tacrolimus conjugated to an enzyme (the “conjugate”) is utilized to determine the amount of tacrolimus in patient samples. Conjugate that binds to the tacrolimus analog on chrome particles is removed by magnetic separation. The enzymatic activity from the conjugate remaining in the supernatant is measured and is directly proportional to the amount of tacrolimus in the patient sample. […] The enzymatic activity observed when no chrome particle is present is indicative of the total amount of enzymatic activity in the conjugate.
(§4) Preparation of pretreatment reagent solution. This pretreatment solution was prepared to contain an amount of releasing agent, 6.8 mg/mL PIPES 1.5 sodium salt (buffer), 0.3 mg/mL EDTA disodium (clot prevention agent), 1.0 mg/mL saponin (hemolytic agent), 0.2% PROCLIN® 300 (preservative), 0.024 mg/mL neomycin sulfate (preservative) and 0.99 mg/mL NaN3, pH 6.5. The amount of releasing agent in each of the pretreatment reagent solutions was 10 μg/mL. The releasing agent concentration in the final reaction mixture was equivalent to 46.7 μg/mL of the analog added from the sample.
Preparation of anti-sirolimus antibody-β-galactosidase conjugate. […] The antibody conjugate solution contained approximately 7.5 μg/mL anti-sirolimus antibody-β-galactosidase conjugate, 30 mg/mL protease free bovine serum albumin, 0.126 mg/mL MgCl2, 0.03 mL/mL of ethylene glycol, 35.14 mg/mL PIPES 1.5 sodium salt, 50 mg/mL NaCl and beta-gal mutein (inactivated β-galactosidase), pH 6.5.
Magnetic chrome particle preparation. Sirolimus chrome particles (immunoassay solid phase) were prepared by conjugating sirolimus-biotin conjugate to streptavidin-coated chrome particle (prepared in a manner similar to that described in U.S. Pat. No. 7,842,475). The chrome particle reagent contained approximately 2.5 mg/mL sirolimus chrome particle slurry, 60.8 mg/mL trehalose dihydrate and 7.2 mg/mL CARBOWAX®.
(§5) Preparation of samples. Aliquots of a whole blood pool are spiked with an amount of sirolimus so that the resulting concentration of sirolimus in the whole blood samples in the calibrators is as set forth in Table 1 (0.0, 5.1, 10.1, 20.6 and 31.6 ng/mL). Aliquots of a whole blood pool are spiked with an amount of tacrolimus so that the resulting concentration of […] (0.0, 2.6, 5.3, 11.6 and 30.1 ng/mL).
(§6) Pretreatment of samples. A set of samples was treated as follows: To each sample was added an amount of the pretreatment reagent solution from above for displacing sirolimus in the sample from endogenous specific binding proteins. The samples were incubated at 37° C. for a period of 140 minutes. Subsequently, each sample was subjected to the aforementioned assay, which is further described below; and signal (mAU) was measured and related to a concentration of analyte that represents the amount of free analyte (analyte that is not bound by endogeneous binding substances plus analyte that was displaced from endogeneous binding substances) in the samples.
Assay. The ACMIA assay for sirolimus was carried out as follows: 15 μL of a whole blood sample from above was mixed with the pretreatment reagent solution from above (Displacer) (Table 1) in a vessel on the DIMENSION® RxL analyzer.

[3] = test system: endogenous specific binding proteins (FKBP) in whole blood; assay: ACMIA assay for tacrolimus: release of tacrolimus from endogenous binding substances in spiked whole blood by releasing agent; details: for Drug concentration measured / Percent (%) displaced vs. SIRO: releasing agent 10 μg/mL
Experimental: as §3, §4
as §1, with “anti-tacrolimus” for “anti-sirolimus”, “1H6, see for example U.S. Pat. No. 7,078,495) is” for “155-M1 from Wyeth Pharmaceutical) was”, “contains” for “contained”
The chrome particle reagent contained approximately 2.5 mg/mL tacrolimus chrome particle slurry, 60.8 mg/mL trehalose dihydrate and 7.2 mg/mL CARBOWAX®.
as §5, §6
The above format for releasing an analyte (using the concentration of releasing agent (Displacer) shown) and conducting an assay for the analyte was repeated for samples containing tacrolimus.

[4] = test system: monoclonal anti-tacrolimus antibody (clone 1H6); assay: Calculated cross-reactivity of releasing agent with antibody of the tacrolimus ACMIA assay; format: binding; details: measured at calibrator of 0 ng/mL
Experimental: as §1, with “anti-tacrolimus” for “anti-sirolimus”, “1H6, see for example U.S. Pat. No. 7,078,495) is” for “155-M1 from Wyeth Pharmaceutical) was”, “contains” for “contained”
as §2, with “reagent.” for “reagent. Chrome particles with immobilized sirolimus-biotin conjugate to streptavidin-coated chrome particle were added (50 μL) to each of the reaction vessels and were allowed to bind un-bound conjugate.”, “cross-reactivity. […]” for “cross-reactivity.”

[5] = sirolimus assay, result in words
[6] = sirolimus calibrator 10.1 ng/mL
[7] = sirolimus calibrator 20.6 ng/mL
[8] = sirolimus calibrator 31.6 ng/mL
[9] = tacrolimus assay, result in words
[10] = tacrolimus calibrator 0.0 ng/mL
[11] = tacrolimus calibrator 2.6 ng/mL
[12] = tacrolimus calibrator 5.3 ng/mL
[13] = tacrolimus calibrator 11.6 ng/mL
[14] = tacrolimus calibrator 30.1 ng/mL

| Compound | Calculated antibody cross-reactivity (percent (%) times 100) [1] [% × 100] | Displacement efficiency compared with mixture of V and VI [2, 5] | Drug concentration measured ([2]; sirolimus calibrator 0.0 ng/mL) [ng/mL] | Drug concentration measured ([2]; sirolimus calibrator 5.1 ng/mL) [ng/mL] | Percent (%) displaced vs. SIRO ([2]; sirolimus calibrator 5.1 ng/mL) [%] | Drug concentration measured [2, 6] [ng/mL] | Percent (%) displaced vs. SIRO [2, 6] [%] | Drug concentration measured [2, 7] [ng/mL] | Percent (%) displaced vs. SIRO [2, 7] [%] | Drug concentration measured [2, 8] [ng/mL] | Percent (%) displaced vs. SIRO [2, 8] [%] | Drug concentration measured [3, 10] [ng/mL] | Drug concentration measured [3, 11] [ng/mL] | Percent (%) displaced vs. SIRO [3, 11] [%] | Drug concentration measured [3, 12] [ng/mL] | Percent (%) displaced vs. SIRO [3, 12] [%] | Drug concentration measured [3, 13] [ng/mL] | Percent (%) displaced vs. SIRO [3, 13] [%] | Drug concentration measured [3, 14] [ng/mL] | Percent (%) displaced vs. SIRO [3, 14] [%] | other results |
| --- | --- | --- | --- | --- | --- | --- | --- | --- | --- | --- | --- | --- | --- | --- | --- | --- | --- | --- | --- | --- | --- |
| C=CC[C@@H]1/C=C(\C)C[C@H](C)C[C@H](OC)[C@H]2O[C@@](O)(C(=O)C(=O)N3CCCC[C@H]3C(=O)O[C@H](/C(C)=C/[C@@H]3CC[C@@H](O)[C@H](OC)C3)[C@H](C)[C@@H](O)CC1=O)[C@H](C)C[C@@H]2OC [Tacro, tacrolimus] | 0.00 | lower displacement efficiency | -0.1 | 2.6 | 52 | 4.1 | 40 | 7.7 | 38 | 13.0 | 41 |  |  |  |  |  |  |  |  |  |  |
| CO[C@H]1C[C@@H]2CC[C@@H](C)[C@@](O)(O2)C(=O)C(=O)N2CCCC[C@H]2C(=O)O[C@H]([C@H](C)C[C@@H]2CC[C@@H](O)[C@H](OC)C2)CC(=O)[C@H](C)/C=C(\C)[C@@H](O)[C@@H](OC)C(=O)[C@H](C)C[C@H](C)CCCCCC1C (stereo partly shown) [XI, hydrogenated sirolimus] | 15.56 | lower displacement efficiency | 72.7 | 82.5 | 1622 | 96.4 | 951 | 94.0 | 458 | 85.2 | 269 | 0.3 | 1.8 | 68 | 2.9 | 54 | 5.6 | 48 | 16.0 | 53 | Cross-reactivity with the sirolimus assay antibody [1]: higher cross-reactivity; Displacement efficiency compared with mixture of V and VI [3, 9]: lower displacement efficiency; Calculated antibody cross-reactivity (percent (%) times 100) [4]: 0.06 % × 100 |
| Diels-Alder adducts of 4-phenyl-1,2,4-triazoline-3,5-dione (PTAD) and sirolimus [Mixture V + VI] | 0.29 |  | 1.4 | 5.8 | 114 | 9.7 | 96 | 16.8 | 82 | 27.5 | 87 | 0.6 | 2.9 | 111 | 4.7 | 89 | 9.5 | 82 | 23.5 | 78 | Suitability as releasing agent for tacrolimus analyte [3, 9]: suitable as a releasing agents; Calculated antibody cross-reactivity (percent (%) times 100) [4]: 0.13 % × 100; Suitability as releasing agent for sirolimus analyte [2, 5]: suitable as a releasing agents |
| Diels-Alder adducts of diethyl azidodicarboxylate (DAC) and sirolimus [Mixture IX + X] | 14.82 | lower displacement efficiency | 69.2 | 93.8 | 1844 | 100.7 | 994 | 119.9 | 584 | 113.0 | 357 | 0.0 | 2.4 | 90 | 4.1 | 78 | 9.2 | 79 | 22.6 | 75 | Cross-reactivity with the sirolimus assay antibody [1]: higher cross-reactivity; Displacement efficiency compared with mixture of V and VI [3, 9]: lower displacement efficiency; Calculated antibody cross-reactivity (percent (%) times 100) [4]: 0.01 % × 100 |
